Where “and” joins values, the source holds several entries; their conditions need not be identical. Equal entries are not always repeated. Numbers after ± are expanded uncertainties.
Conditions: Liquid; for mass density: Vibrating tube method; for viscosity: 293.23 K, Vibrating wire viscometry

OCCOCCO [diethylene glycol]
mass density (283.15 K, 100 kPa): 1123.1 ± 4.5 kg/m3
mass density (283.15 K, 640 kPa): 1123.3 ± 4.5 kg/m3
mass density (283.15 K, 1080 kPa): 1123.5 ± 4.5 kg/m3
mass density (283.15 K, 1590 kPa): 1123.7 ± 4.5 kg/m3
mass density (283.15 K, 2140 kPa): 1124 ± 4.5 kg/m3
mass density (283.15 K, 3050 kPa): 1124.3 ± 4.5 kg/m3
mass density (283.15 K, 5050 kPa): 1125.2 ± 4.5 kg/m3
mass density (283.15 K, 6930 kPa): 1126 ± 4.5 kg/m3
mass density (283.15 K, 9930 kPa): 1127.2 ± 4.5 kg/m3
mass density (283.15 K, 14810 kPa): 1129.3 ± 4.5 kg/m3
mass density (283.15 K, 19760 kPa): 1131.3 ± 4.5 kg/m3
mass density (283.15 K, 24610 kPa): 1133.3 ± 4.6 kg/m3
mass density (283.15 K, 29600 kPa): 1135.2 ± 4.6 kg/m3
mass density (283.15 K, 34500 kPa): 1137.1 ± 4.6 kg/m3
mass density (283.15 K, 39420 kPa): 1139 ± 4.6 kg/m3
mass density (283.15 K, 44300 kPa): 1140.8 ± 4.6 kg/m3
mass density (283.15 K, 49180 kPa): 1142.6 ± 4.6 kg/m3
mass density (283.15 K, 54060 kPa): 1144.4 ± 4.6 kg/m3
mass density (283.15 K, 59030 kPa): 1146.1 ± 4.6 kg/m3
mass density (283.15 K, 63810 kPa): 1147.8 ± 4.6 kg/m3
mass density (283.15 K, 68760 kPa): 1149.5 ± 4.6 kg/m3
mass density (293.15 K, 100 kPa): 1115.9 ± 4.5 kg/m3
mass density (293.15 K, 570 kPa): 1116.1 ± 4.5 kg/m3
mass density (293.15 K, 1080 kPa): 1116.3 ± 4.5 kg/m3
mass density (293.15 K, 1530 kPa): 1116.6 ± 4.5 kg/m3
mass density (293.15 K, 2110 kPa): 1116.8 ± 4.5 kg/m3
mass density (293.15 K, 3080 kPa): 1117.2 ± 4.5 kg/m3
mass density (293.15 K, 5040 kPa): 1118.1 ± 4.5 kg/m3
mass density (293.15 K, 6990 kPa): 1118.9 ± 4.5 kg/m3
mass density (293.15 K, 9940 kPa): 1120.2 ± 4.5 kg/m3
mass density (293.15 K, 14840 kPa): 1122.3 ± 4.5 kg/m3
mass density (293.15 K, 19740 kPa): 1124.3 ± 4.5 kg/m3
mass density (293.15 K, 24680 kPa): 1126.4 ± 4.5 kg/m3
mass density (293.15 K, 29600 kPa): 1128.4 ± 4.5 kg/m3
mass density (293.15 K, 34530 kPa): 1130.3 ± 4.5 kg/m3
mass density (293.15 K, 39360 kPa): 1132.2 ± 4.6 kg/m3
mass density (293.15 K, 44320 kPa): 1134.1 ± 4.6 kg/m3
mass density (293.15 K, 49120 kPa): 1136 ± 4.6 kg/m3
mass density (293.15 K, 54090 kPa): 1137.8 ± 4.6 kg/m3
mass density (293.15 K, 58990 kPa): 1139.6 ± 4.6 kg/m3
mass density (293.15 K, 63820 kPa): 1141.3 ± 4.6 kg/m3
mass density (293.15 K, 68750 kPa): 1143 ± 4.6 kg/m3
viscosity (180 kPa): 34.67 ± 1.4 mPa·s [middle of 4 runs]
viscosity (1170 kPa): 34.84 ± 1.4 mPa·s [middle of 4 runs]
viscosity (2100 kPa): 34.99 ± 1.4 mPa·s [middle of 5 runs]
viscosity (2110 kPa): 35.15 ± 1.4 mPa·s
viscosity (5060 kPa): 35.84 ± 1.5 mPa·s and 36.03 ± 1.5 mPa·s and 36.04 ± 1.5 mPa·s
viscosity (5070 kPa): 35.72 ± 1.4 mPa·s
viscosity (10240 kPa): 37.39 ± 1.5 mPa·s [middle of 4 runs]
viscosity (19990 kPa): 40.52 ± 1.6 mPa·s [middle of 4 runs]
viscosity (29910 kPa): 43.47 ± 1.8 mPa·s and 43.45 ± 1.8 mPa·s
viscosity (29920 kPa): 43.5 ± 1.8 mPa·s and 43.6 ± 1.8 mPa·s
viscosity (40040 kPa): 47.04 ± 1.9 mPa·s [middle of 5 runs]
viscosity (50530 kPa): 51.14 ± 2.1 mPa·s [middle of 4 runs]
viscosity (69900 kPa): 58.55 ± 2.4 mPa·s
viscosity (69990 kPa): 58.38 ± 2.4 mPa·s
viscosity (70070 kPa): 58.52 ± 2.4 mPa·s
mass density (303.15 K, 100 kPa): 1108.8 ± 4.4 kg/m3
mass density (303.15 K, 680 kPa): 1109 ± 4.4 kg/m3
mass density (303.15 K, 1130 kPa): 1109.2 ± 4.4 kg/m3
mass density (303.15 K, 1580 kPa): 1109.4 ± 4.4 kg/m3
mass density (303.15 K, 2120 kPa): 1109.7 ± 4.5 kg/m3
mass density (303.15 K, 3030 kPa): 1110.1 ± 4.5 kg/m3
mass density (303.15 K, 5040 kPa): 1111 ± 4.5 kg/m3
mass density (303.15 K, 6950 kPa): 1111.9 ± 4.5 kg/m3
mass density (303.15 K, 9960 kPa): 1113.2 ± 4.5 kg/m3
mass density (303.15 K, 14840 kPa): 1115.4 ± 4.5 kg/m3
mass density (303.15 K, 19740 kPa): 1117.5 ± 4.5 kg/m3
mass density (303.15 K, 24680 kPa): 1119.6 ± 4.5 kg/m3
mass density (303.15 K, 29610 kPa): 1121.6 ± 4.5 kg/m3
mass density (303.15 K, 34520 kPa): 1123.6 ± 4.5 kg/m3
mass density (303.15 K, 39380 kPa): 1125.6 ± 4.5 kg/m3
mass density (303.15 K, 44350 kPa): 1127.5 ± 4.5 kg/m3
mass density (303.15 K, 49140 kPa): 1129.4 ± 4.5 kg/m3
mass density (303.15 K, 54090 kPa): 1131.3 ± 4.6 kg/m3
mass density (303.15 K, 58990 kPa): 1133.1 ± 4.6 kg/m3

Reference: the NIST ThermoML archive (doi:10.1016/j.fluid.2018.09.026)
